In US20190201419A1, “COMPOUND AND METHOD FOR THE TREATMENT AND DIAGNOSIS OF NEURODEGENERATIVE CONDITIONS” (Swansea University, priority 2013, published 2019):

What was measured:
[1] = test system: Abca1, Abcg1 and Srebf1 transcript levels; test: Quantitative PCR of Lxr target genes in SN4741 cells; assay type: cell-based, mouse; conditions: 3 h
Method: Quantitative PCR, Total RNA was extracted from SN4741. cells and zebrafish treated with the compounds of interest using the RNeasy Mini Kit (Qiagen), 1 μg was treated with RQ1 RNase-free DNase (Promega) and reverse transcribed using SuperScript II Reverse Transcriptase (invitrogen) and random primers (invitrogen) (RT+reaction). Parallel reactions without reverse transcriptase enzyme were done as a control (RT−reaction), and Sybergreen real-time quantitative PCR assays were performed. Expression levels were obtained by normalization with the Value of the housekeeping gene encoding actin obtained for every sample in parallel assays.

Lxrβ = target: T1, Lxrβ (Homo sapiens, UniProt P55055); test: Lxrβ luciferase reporter assay in SN4741 neural cells; assay type: cell-based, mouse; conditions: for Lxr activational capacity in combination with 22R-HC: 10 μM acid + 10 μM 22R-HC; for Lxrβ activation, luciferase activity (fold activation): SN4741 cells, 10 μM, 24 h
T1 construct: expressed in transfected cells; host or cells: SN4741 mouse neuronal cell line
T1 sequence (P55055 1-460): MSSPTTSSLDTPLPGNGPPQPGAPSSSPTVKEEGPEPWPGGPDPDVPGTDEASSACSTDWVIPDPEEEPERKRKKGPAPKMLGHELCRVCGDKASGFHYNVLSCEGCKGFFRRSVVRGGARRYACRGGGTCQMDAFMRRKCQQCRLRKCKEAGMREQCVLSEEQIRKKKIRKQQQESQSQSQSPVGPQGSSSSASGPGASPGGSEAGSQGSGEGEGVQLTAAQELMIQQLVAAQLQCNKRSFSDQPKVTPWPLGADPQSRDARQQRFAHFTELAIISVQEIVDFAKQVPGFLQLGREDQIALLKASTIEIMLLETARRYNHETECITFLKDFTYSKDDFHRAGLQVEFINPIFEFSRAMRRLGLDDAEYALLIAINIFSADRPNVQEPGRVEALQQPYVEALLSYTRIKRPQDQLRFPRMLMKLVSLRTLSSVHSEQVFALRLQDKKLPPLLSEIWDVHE
Source text: Luciferase Reporter Assay.

Lxrβ-LBD = target: T2, Lxrβ-LBD (Homo sapiens, UniProt P55055); test: Lanthascreen TR-FRET Lxrβ coactivator assay; assay type: binding
T2 construct: the Lxrβ-LBD tagged with glutathione-S-transferase (GST); purchased Invitrogen
T2 sequence (P55055 222-460 limits assumed): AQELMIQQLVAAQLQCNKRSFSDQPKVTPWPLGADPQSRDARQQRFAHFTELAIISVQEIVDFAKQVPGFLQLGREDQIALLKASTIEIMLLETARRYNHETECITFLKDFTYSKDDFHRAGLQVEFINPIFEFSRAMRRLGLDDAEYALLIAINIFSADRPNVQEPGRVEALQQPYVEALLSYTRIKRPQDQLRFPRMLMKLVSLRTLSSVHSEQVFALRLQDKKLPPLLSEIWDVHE
Source text: Lxrβ Ligand Binding Assay. For Lxrβ ligand binding activity measurement, the applicants used the Lanthascreen™ TR-FRET Lxrβ Coactivator Assay (Invitrogen). The assay uses a terbium (Tb)-labeled anti-GST antibody, a fluorescein-labeled coactivator peptide and the Lxrβ-LBD tagged with glutathione-S-transferase (GST). Binding of the agonist/ligand to Lxrβ-LBD causes a conformational change that result in an increase in the affinity of the Lxrβ for the coactivator peptide. The close proximity of the fluorescently labeled coactivator peptide to the Tb-labeled antibody causes an increase in the TR-FRET signal intensity. The TR-FRET ratio of 520/495 was calculated using a Victor multi label reader with an excitation wavelength of 340 nm and emission wavelengths of 520 nm and 495 nm, The activational capacity of potential ligands was tested in a […] polypropylene plate, following the manufacturer's protocol.

active caspase 3+ cells = test: Active caspase 3+ cells in mouse E11.5 brain primary cultures; assay type: cell-based; conditions: for Concentration giving significant difference from vehicle in active caspase 3+ cells: p<0.05; for Number of active caspase-3+ cells: wt cultures, 3β,7α-diHCA, 3βH,7O-CA, 25-HC at 10 μM, toxic acids at low concentrations
Method: (§1) Primary Brain Cultures. Brains from E11.5 mice were manually dissected, plated on poly-D-lysine (150,000 cells/cm^2) and grown in serum-free N2 media consisting of 1:1 mixture of F12 and DMEM with 10 ng/mL insulin, 100 μg/mL apo-transferrin, 100 μM putrescine, 20 nM progesterone, 30 nM selenium, 6 mg/mL glucose, and 1 mg/mL BSA. Cells were treated for 3 days in vitro (DIV) with the compounds of interest, fixed with 4% PFA and processed for staining using appropriate antibodies.
(§2) Antibodies and Detection Procedures. Cells were fixed in 4% PFA, washed in PBS and blocked in 5% normal goat serum/PBS for 1 h at room temperature. Primary antibodies were diluted in PBS (pH 7.4), 0.3% Triton X-100, 1% BSA and incubations were carried out overnight at +4° C. or at room temperature for 2 h. The antibodies used were anti-:BrdU (1:400; Abeam), Islet-1 (1:100: Developmental Studies Hybridoma Bank), cleaved caspase-3 (Aspt 75) (1:100; Cell Signaling Technology), tyrosine hydroxylase (TH; 1:1000; Pel-Freeze) GABA (1:1,000; Sigma), Bm3a (1:250; Millipore), Nkx6.1 (1:200; Novus Biologicals), choline acetyltransferase (ChAT; 1:500; Millipore) and appropriate secondary antibodies (Jackson ImmunoResearch or Alexa). Cells positive for the corresponding marker were counted directly at the microscope at a magnification of 20×. Cells were counted in every well, in eight consecutive fields (going from one side of the well to the other, passing through the center), in three different wells per experiment and in three different experiments per condition. Random pictures of the wells were taken for every condition to document the result, and representative pictures were subsequently selected to represent the quantitative data. Photos were acquired with a Zeiss Axioplan microscope and a Hamamatsu camera C4742-95 using the Openlab software.

[2] = test system: TH+ dopamine neurons, GABAergic or red nucleus neurons; Nkx6.1+ cells; test: Other cell types in mouse E11.5 brain primary cultures; assay type: cell-based
Method: as §1, §2

Compound	Abca1, Abcg1 and Srebf1 transcript levels [1]	Lxr activational capacity in combination with 22R-HC (Lxrβ)	Lxrβ activation, luciferase activity (fold activation) (Lxrβ)	TR-FRET signal (coactivator recruitment to Lxrβ-LBD) (Lxrβ-LBD; dose response)	Reduction of neuronal cell death (activated caspase 3) induced by 2 μM 3β,7β-diHCA or 3β-HCA (active caspase 3+ cells; 10 μM)	Effect on active caspase-3+ cells with GGPP (active caspase 3+ cells; 10 μM GGPP, toxic acids at 2 μM)	Concentration giving significant difference from vehicle in active caspase 3+ cells (active caspase 3+ cells)	Number of active caspase-3+ cells (active caspase 3+ cells)	Total number of Nkx6.1+ cells [2]	Number of other midbrain neurons (TH+ dopamine, GABAergic, red nucleus) ([2]; data not shown)	Competition with the effect of 3β,7α-diHCA in TR-FRET (Lxrβ-LBD; 3β,7α-diHCA at 10 μM plus increasing concentrations of competitor)	Competitor concentration giving significant difference from 10 μM 3β,7α-diHCA alone in TR-FRET (Lxrβ-LBD; p<0.05 vs 10 μM 3β,7α-diHCA)	Surviving cells in cultures (active caspase 3+ cells; 10 μM)	Concentration at which toxicity is initiated (active caspase 3+ cells; mouse, primary brain cultures from E11.5 mouse embryos, 3 days)
CC(CCC[C@@H](C)[C@H]1CC[C@H]2[C@@H]3[C@H](O)C=C4C[C@@H](O)CC[C@]4(C)[C@H]3CC[C@]12C)C(=O)O (stereo partly drawn) [3β,7α-diHCA, 3β,7α-dihydroxycholest-5-en-26-oic acid]	increased transcripts levels to a similar degree as 22R-HC	No additive effect was observed	have the ability to activate both Lxrs	induced FRET in a dose dependent manner to a higher degree than the other acids	reduced the neuronal cell death	completely blocked by co-incubation with the Lxr inhibitor GGPP	≥ 10 µM	decreased the number of active caspase-3+ cells	neither 3β,7α-diHCA nor 3β-HCA altered the total number of Nkx6.1+ cells	did not affect the number of other midbrain neurons				
CC(CCC[C@@H](C)[C@H]1CC[C@H]2[C@@H]3CC=C4C[C@@H](O)CC[C@]4(C)[C@H]3CC[C@]12C)C(=O)O (stereo partly drawn) [3β-HCA, 3β-hydroxycholest-5-en-26-oic acid]	induced transcription, but to a lesser extent	No additive effect was observed	activates Lxr				≥ 2 µM	increased the number of active caspase-3+ cells	neither 3β,7α-diHCA nor 3β-HCA altered the total number of Nkx6.1+ cells		the effect of 3β,7α-diHCA was reduced to that of the latter acids	≥ 5	no surviving cells were detected	1000 nM
